According to the supplement of paper PMC10307832:

Columns and labels:
Assay in all cases: relative viability (nuclei count vs DMSO), 5 days (fraction); higher = more cells survive
[1] = compound: CC(C)N(CCCNC(=O)Nc1ccc(C(C)(C)C)cc1)C[C@H]1O[C@@H](n2ccc3c(N)ncnc32)[C@H](O)[C@@H]1O + CC1(C)CCC(c2ccc(Cl)cc2)=C(CN2CCN(c3ccc(C(=O)NS(=O)(=O)c4ccc(N[C@H](CCN5CCOCC5)CSc5ccccc5)c(S(=O)(=O)C(F)(F)F)c4)cc3)CC2)C1 [Navitoclax] (partner 0.5 µM)
In short: (§1)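 Relative viability is defined as nuclei in treated wells over nuclei in vehicle wells. Duplicate plates were run and medians reported. Lung cancer cell lines in 1536-well plates were dosed by pin tool one day after seeding, with one drug or with a fixed anchor-drug dose plus five library-drug doses (not always all listed) in √10 steps, and nuclei were counted after 5 days.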

Shikonin + Foretinib = compound: CC(C)=CC[C@@H](O)C1=CC(=O)c2c(O)ccc(O)c2C1=O [Shikonin] + COc1cc2c(Oc3ccc(NC(=O)C4(C(=O)Nc5ccc(F)cc5)CC4)cc3F)ccnc2cc1OCCCN1CCOCC1 [Foretinib] (partner 0.25 µM)
In short: as §1

[2] = compound: CC(C)N(CCCNC(=O)Nc1ccc(C(C)(C)C)cc1)C[C@H]1O[C@@H](n2ccc3c(N)ncnc32)[C@H](O)[C@@H]1O + CC(=O)Nc1cccc(-n2c(=O)n(C3CC3)c(=O)c3c(Nc4ccc(I)cc4F)n(C)c(=O)c(C)c32)c1 [Trametinib] (partner 0.02 µM)
In short: as §1

Shikonin + Vorinostat = compound: CC(C)=CC[C@@H](O)C1=CC(=O)c2c(O)ccc(O)c2C1=O [Shikonin] + O=C(CCCCCCC(=O)Nc1ccccc1)NO [Vorinostat] (partner 1 µM)
In short: as §1

Row | Cell Line | relative viability ([1]; first compound 0.08 µM) | relative viability ([1]; first compound 0.253 µM) | relative viability ([1]; first compound 0.8 µM) | relative viability ([1]; first compound 2.53 µM) | relative viability ([1]; first compound 8 µM) | relative viability (Shikonin + Foretinib; first compound 0.01 µM) | relative viability (Shikonin + Foretinib; first compound 0.1 µM) | relative viability (Shikonin + Foretinib; first compound 0.3162 µM) | relative viability (Shikonin + Foretinib; first compound 1 µM) | relative viability ([2]; first compound 0.08 µM) | relative viability ([2]; first compound 0.253 µM) | relative viability ([2]; first compound 0.8 µM) | relative viability ([2]; first compound 2.53 µM) | relative viability ([2]; first compound 8 µM) | relative viability (Shikonin + Vorinostat; first compound 0.01 µM) | relative viability (Shikonin + Vorinostat; first compound 0.1 µM) | relative viability (Shikonin + Vorinostat; first compound 0.3162 µM) | relative viability (Shikonin + Vorinostat; first compound 1 µM)
1 | EBC-1 | 0.406 | 0.387 | 0.383 | 0.363 | 0.388 | 0.0907 | 0.107 | 0.11 | 0.112 | – | – | – | – | – | – | – | – | –
2 | EKVX | 0.905 | 0.974 | 0.976 | 0.95 | 0.915 | 0.751 | 0.646 | 1.05 | 0.762 | 0.392 | 0.339 | 0.376 | 0.359 | 0.327 | 0.634 | 0.711 | 0.831 | 0.925
3 | EMC-BAC-2 | 1.14 | 1.15 | 1.13 | 1.14 | 1.08 | 0.993 | 1.05 | 1.16 | 0.972 | 0.895 | 0.851 | 0.965 | 0.854 | 0.819 | 0.431 | 0.465 | 0.439 | 0.659
4 | EPLC-272H | 1.03 | 0.981 | 0.989 | 1.12 | 1.02 | 0.715 | 0.601 | 0.783 | 0.726 | 0.246 | 0.273 | 0.27 | 0.333 | 0.298 | 0.378 | 0.353 | 0.536 | 0.377
5 | H3255 | 0.518 | 0.555 | 0.545 | 0.367 | 0.551 | 0.851 | 0.876 | 0.869 | 0.856 | 0.492 | 0.593 | 0.483 | 0.587 | 0.49 | 0.703 | 0.959 | 0.916 | 0.855
6 | HARA | 1.08 | 1.07 | 1.15 | 1.13 | 0.941 | 0.936 | 1.13 | 0.865 | 0.883 | 0.736 | 0.412 | 0.54 | 0.511 | 0.508 | 0.546 | 0.51 | 0.468 | 0.605
7 | HCC-15 | 0.653 | 0.717 | 0.733 | 0.707 | 0.673 | 1.05 | 1.02 | 1.12 | 0.986 | 0.338 | 0.363 | 0.401 | 0.362 | 0.351 | 0.986 | 0.841 | 1.01 | 0.955
8 | HCC-44 | 0.952 | 1.1 | 0.915 | 0.961 | 1.03 | – | – | – | – | 1.11 | 1.09 | 0.936 | 1.11 | 1.18 | 1.14 | 1.12 | 1.13 | 1.03
9 | HCC-78 | 0.704 | 0.646 | 0.607 | 0.784 | 0.839 | 0.562 | 0.621 | 0.614 | 0.627 | 0.716 | 0.867 | 0.804 | 0.586 | 0.736 | 0.505 | 0.472 | 0.514 | 0.415
